# Measured values from patent US8193326B2, “Nucleic acids encoding novel TERT polypeptides” (GemVax AS, priority 2000, dated 2012).
# System: T cells from human peripheral blood mononuclear cells (PBMC)
# Test: Induction and proliferation of human T cell response to peptide (3H-thymidine proliferation assay)
# Format: cell-based
# Conditions: PBMC from four healthy donors primed with peptide-pulsed dendritic cells, re-stimulated with peptide-pulsed autologous PBMC, mean cpm of triplicates
# From the text: In this experiment, peripheral blood mononuclear cells (PBMC) from four healthy humans (donors “14328”, “14313”, “23244” and “23255”) and were isolated and primed for seven days with dendritic cells pulsed with the SEQ ID NO: 11 peptide derived from the hTERT σ-insert polypeptide, followed by two cycles consisting of seven days re-stimulation with peptide-pulsed autologous PBMC. The dendritic cells were derived from monocytes from peripheral blood. T cells from the resulting bulk: culture were tested in triplicate with or without peptide-pulsed antigen presenting cells (APC) before harvesting after 3 days. To measure the proliferative capacity of the cultures, ^3H-thymidine (3.7×10^4 Bq/well) was added to the culture overnight before harvesting. Cultures with non-pulsed APC or without APC served as controls. Further details of the protocol used are set out below.
# T cell clones were obtained from the resulting bulk cultures from non-vaccinated donors 14313 and 23255. […]
# PBMCs were separated out from 50 ml of blood (from buffy coat). The cells were counted and re-suspended in complete RPMI-1640/15% pool serum. […]
# Bulk cultures were harvested and stimulated with irradiated PBMCs and peptide. If there was high cell death, cultures were lymphoprep separated, otherwise they were counted and resuspended in RPMI/15% pool serum. […]
substance,measurement,value
SEQ ID NO: 11: peptide derived from the hTERT σ-insert polypeptide (RVAVLWFNFLFKQKPSVSPRG; listed as Homo sapiens),"proliferative T cell response / peptide-specific T cells (bulk cultures and T cell clones, FIGS. 7-9)",T cells can be expanded in vitro following stimulation with the relevant peptide
